Test [1] deals with T1, T7 RNA polymerase (Escherichia phage T7, UniProt P00573). The test is described as follows: In vitro transcription yield of mRNA using cap analogs. The format is biochemical. Particulars: for Yield per unit template: in vitro transcription, 1 μg DNA template, 37° C., 2 hours. The method, boiled down: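 Linearized plasmid template transcribed by T7 RNA polymerase with NTPs, cap analog, nuclease inhibitor and inorganic pyrophosphatase for 2 h at 37° C., then DNase I 30 min at 37° C. mRNA was ethanol-washed, redissolved and purified, and yield recorded.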

Test [2] concerns the target T2, DCP2 enzyme (Schizosaccharomyces pombe, UniProt O13828).
T2 construct: purchased New England Biolabs
T2 sequence (O13828 1-243 limits assumed): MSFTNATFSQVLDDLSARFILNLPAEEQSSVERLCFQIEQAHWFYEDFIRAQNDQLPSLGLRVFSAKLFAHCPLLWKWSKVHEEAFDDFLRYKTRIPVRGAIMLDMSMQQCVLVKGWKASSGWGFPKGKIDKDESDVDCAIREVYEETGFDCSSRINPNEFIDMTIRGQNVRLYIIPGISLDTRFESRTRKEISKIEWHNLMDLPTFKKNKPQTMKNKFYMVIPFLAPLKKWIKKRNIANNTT
T2 sequence (Q9P805 1-127 partner): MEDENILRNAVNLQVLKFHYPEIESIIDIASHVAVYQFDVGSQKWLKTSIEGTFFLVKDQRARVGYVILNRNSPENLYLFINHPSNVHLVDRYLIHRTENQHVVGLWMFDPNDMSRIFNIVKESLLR
T2 sequence (Q10108 155-180 partner limits assumed): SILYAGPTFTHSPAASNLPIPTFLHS
The test is described as follows: Decapping enzyme stability test. It counts as biochemical. Particulars: for Decapping rate (%) of DCP2 enzyme: 50 U mRNA decapping enzyme, 37° C., 45 minutes. In short, it runs like this: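 PAGE-purified RNA ([…]) incubated with 50 U mRNA decapping enzyme in 1×MDE buffer at 37° C. for 45 minutes. Products resolved by PAGE, SYBR Green II stained; decapping rate derived from capped-to-decapped band intensity ratio.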

Test [3] has as its target T1, T7 RNA polymerase. The test is described as follows: Capping rate of mRNA transcription initiated by cap analogs (LC-MS). Particulars: for Capping rate: LC-MS of mRNA 5′ fragment. It counts as biochemical. In short, it runs like this: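 mRNA was transcribed from linearized DNA template with T7 RNA polymerase, NTPs and cap analog for 2 h at 37 °C, then DNase-treated and purified. Product was annealed to a probe and captured on magnetic beads, and the 5′ fragment was released by RNase H (3 h, 37 °C). Capping rate was determined by LC-MS from the mass difference between capped and uncapped ends.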

In test [4] the test system is BALB/C mice. In words: In vivo imaging of Fluc-mRNA LNP expression in mice. Particulars: for Total radiation intensity: 5 μg Fluc-mRNA LNP intramuscular, mice. The method, boiled down: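 Luciferase expression was imaged by IVIS as total radiation intensity, 5 min after intraperitoneal substrate, at 6, 12, 24, 48, 96 and 168 h. Dosing was intramuscular LNP with 5 μg cap analog Fluc-mRNA in female BALB/C mice; results are fold versus the m6A group.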

T1 sequence (P00573 whole entry): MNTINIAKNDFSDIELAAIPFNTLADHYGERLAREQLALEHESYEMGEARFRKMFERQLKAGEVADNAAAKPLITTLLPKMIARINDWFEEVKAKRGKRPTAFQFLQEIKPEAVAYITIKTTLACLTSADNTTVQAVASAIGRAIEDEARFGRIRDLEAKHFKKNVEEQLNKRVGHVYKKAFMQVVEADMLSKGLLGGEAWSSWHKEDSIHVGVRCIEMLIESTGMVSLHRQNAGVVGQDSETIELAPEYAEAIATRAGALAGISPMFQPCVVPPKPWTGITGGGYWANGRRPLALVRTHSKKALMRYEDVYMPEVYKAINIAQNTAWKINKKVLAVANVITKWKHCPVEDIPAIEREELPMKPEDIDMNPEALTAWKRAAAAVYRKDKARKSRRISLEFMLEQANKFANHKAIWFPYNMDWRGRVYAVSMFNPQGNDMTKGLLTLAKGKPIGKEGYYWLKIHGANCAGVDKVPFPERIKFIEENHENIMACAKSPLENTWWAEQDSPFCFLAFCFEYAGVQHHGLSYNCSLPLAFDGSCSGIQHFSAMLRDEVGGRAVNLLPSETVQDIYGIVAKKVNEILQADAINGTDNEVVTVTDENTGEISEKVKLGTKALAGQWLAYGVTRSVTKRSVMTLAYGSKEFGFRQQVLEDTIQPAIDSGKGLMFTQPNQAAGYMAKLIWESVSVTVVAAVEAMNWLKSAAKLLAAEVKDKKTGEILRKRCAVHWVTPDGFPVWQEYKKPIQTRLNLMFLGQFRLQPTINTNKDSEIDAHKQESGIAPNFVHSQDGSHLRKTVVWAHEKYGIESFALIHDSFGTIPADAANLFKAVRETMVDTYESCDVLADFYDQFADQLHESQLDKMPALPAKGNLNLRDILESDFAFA

On to `COC[C@]1(COP(=O)(O)OP(=O)(O)OP(=O)(O)OC[C@H]2O[C@@H](n3cnc4c(N)ncnc43)[C@H](OC)[C@@H]2OP(=O)(O)OC[C@H]2O[C@@H](n3cnc4c(=O)[nH]c(N)nc43)[C@H](O)[C@@H]2O)O[C@@H]([n+]2cn(C)c3c(=O)[nH]c(N)nc32)[C@H](O)[C@@H]1O` [YK-CAP-117], for which the “Yield per unit template” value in test [1] turned out to be 153.2 µg. Besides, the “Increase relative to 5227 (in vitro transcription yield)” value in test [1] is 14.2%. Besides, in test [2], the “Decapping rate (%) of DCP2 enzyme” value worked out at 9.8%. Further, the “Decapping rate lower than that of HN3002” value in test [2] (relative to HN3002) was found to be 13.5%. The “Decrease relative to N-7113 (decapping rate)” value in test [2] turned out to be 34.0%. The “Decapping rate lower than that of YK-CAP-101” value in test [2] (relative to YK-CAP-101) is listed as 22.6%. Also, the “Decapping rate lower than that of YK-CAP-102” value in test [2] (relative to YK-CAP-102) is 31.4%. The “Decapping rate lower than that of YK-CAP-103” value in test [2] (relative to YK-CAP-103) was found to be 26.7%. Further, the “Decapping rate lower than that of YK-CAP-104” value in test [2] (relative to YK-CAP-104) worked out at 36.3%. Besides, the “Decapping rate lower than that of YK-CAP-105” value in test [2] (relative to YK-CAP-105) came to 24.1%. The “Decapping rate lower than that of compound 14” value in test [2] (relative to compound 14) is 17.0%. Moreover, in test [2] (relative to m6A), the “Decapping rate lower than that of m6A” value came out at 24.0%. The Capping rate in test [3] is given as 95.1%. In addition, the “Increase relative to 5227 (capping rate)” value in test [3] was 32.3%. Also, the “Multiple of total radiation intensity relative to m6A” value in test [4] (6 h) amounted to 3.8; in test [4] (12 h), 3.8; in test [4] (24 h), 3.2; in test [4] (48 h) it was 3.3; in test [4] (96 h), 0.9. Besides, the Total radiation intensity in test [4] (6 h) is listed as 8.99 ×108 p/s; in test [4] (12 h) it was 8.00 ×108 p/s; in test [4] (24 h), 2.08 ×108 p/s; in test [4] (48 h), 1.73 ×108 p/s; in test [4] (96 h), 0.35 ×108 p/s; in test [4] (168 h), 0.02 ×108 p/s.
In the case of `CO[C@@H]1[C@H](OP(=O)(O)OC[C@H]2O[C@@H](n3cnc4c(=O)[nH]c(N)nc43)[C@H](O)[C@@H]2O)[C@@H](COP(=O)(O)OP(=O)(O)OP(=O)(O)OC[C@@]2(C(F)F)O[C@@H]([n+]3cn(C)c4c(=O)[nH]c(N)nc43)[C@H](O)[C@@H]2O)O[C@H]1n1cnc2c(N)ncnc21` [YK-CAP-119], the “Yield per unit template” value in test [1] is 154.2 µg. In addition, in test [1], the “Increase relative to 5227 (in vitro transcription yield)” value is recorded as 14.9%. Further, the “Decapping rate (%) of DCP2 enzyme” value in test [2] was found to be 11.4%. Moreover, the “Decrease relative to N-7113 (decapping rate)” value in test [2] was 32.4%. Moreover, the Capping rate in test [3] was determined as 96.3%. Moreover, the “Increase relative to 5227 (capping rate)” value in test [3] came out at 33.9%. The “Multiple of total radiation intensity relative to m6A” value in test [4] (6 h) amounted to 3.2; in test [4] (12 h), 3.1; in test [4] (24 h), 3.3; in test [4] (48 h) it was 2.4; in test [4] (96 h), 1.3. In addition, the Total radiation intensity in test [4] (6 h) is reported as 7.47 ×108 p/s; in test [4] (12 h) it was 6.65 ×108 p/s; in test [4] (24 h), 2.15 ×108 p/s; in test [4] (48 h) it was 1.26 ×108 p/s; in test [4] (96 h) it was 0.25 ×108 p/s; in test [4] (168 h) it was 0.02 ×108 p/s.
Take `CO[C@@H]1[C@H](OP(=O)(O)OC[C@H]2O[C@@H](n3cnc4c(=O)[nH]c(N)nc43)[C@H](O)[C@@H]2O)[C@@H](COP(=O)(O)OP(=O)(O)OP(=O)(O)OC[C@@]2(OC)O[C@@H]([n+]3cn(C)c4c(=O)[nH]c(N)nc43)[C@H](O)[C@@H]2O)O[C@H]1n1cnc2c(N)ncnc21` [compound 5227, reference compound]: the “Yield per unit template” value in test [1] was 134.2 µg. Moreover, the “Increase relative to 5227 (in vitro transcription yield)” value in test [1] turned out to be 0%. For the same compound, in test [2], the “Decapping rate (%) of DCP2 enzyme” value turned out to be 23.2%. For the same compound, the “Decrease relative to N-7113 (decapping rate)” value in test [2] came to 20.6%. This compound also came in with a Capping rate in test [3] of 71.9%. Also, the “Increase relative to 5227 (capping rate)” value in test [3] worked out at 0%. Also, the “Multiple of total radiation intensity relative to m6A” value came out at 1.0 in test [4] (6 h); 0.7 in test [4] (12 h); 0.8 in test [4] (24 h); 0.9 in test [4] (48 h); 0.9 in test [4] (96 h). Further, the Total radiation intensity is reported as 2.38 ×108 p/s in test [4] (6 h); 1.45 ×108 p/s in test [4] (12 h); 0.53 ×108 p/s in test [4] (24 h); 0.48 ×108 p/s in test [4] (48 h); 0.07 ×108 p/s in test [4] (96 h); 0.02 ×108 p/s in test [4] (168 h).
With `COC(C)[C@H]1[C@@H](O)[C@H]([n+]2cn(C)c3c(=O)[nH]c(N)nc32)O[C@@H]1COP(=O)(O)OP(=O)(O)OP(=O)(O)OC[C@H]1O[C@@H](n2cnc3c(N)ncnc32)[C@H](OC)[C@@H]1OP(=O)(O)OC[C@H]1O[C@@H](n2cnc3c(=O)[nH]c(N)nc32)[C@H](O)[C@@H]1O` (stereo partly shown) [YK-CAP-107], the “Yield per unit template” value in test [1] came out at 170.7 µg. In test [1], the “Increase relative to 5227 (in vitro transcription yield)” value was found to be 27.2%. The “Decapping rate (%) of DCP2 enzyme” value in test [2] came out at 11.5%. The “Decrease relative to N-7113 (decapping rate)” value in test [2] is recorded as 32.3%. In test [3], this compound came in with a Capping rate of 97.3%. For the same compound, the “Increase relative to 5227 (capping rate)” value in test [3] is on record as 35.3%. The “Multiple of total radiation intensity relative to m6A” value in test [4] (6 h) is given as 3.4; in test [4] (12 h) it was 3.2; in test [4] (24 h), 2.9; in test [4] (48 h) it was 1.2; in test [4] (96 h) it was 2.5. Besides, the Total radiation intensity is 8.09 ×108 p/s in test [4] (6 h); 6.87 ×108 p/s in test [4] (12 h); 1.92 ×108 p/s in test [4] (24 h); 0.60 ×108 p/s in test [4] (48 h); 0.11 ×108 p/s in test [4] (96 h); 0.03 ×108 p/s in test [4] (168 h).

The values are drawn from US12576099B2, “Ribose-modified cap analog and use thereof” (Beijing Youcare Kechuang Pharmaceutical Technology Co., Ltd., priority 2024, dated 2026).
